Laboratory results from patent US20260158009A1 (GENZYME CORPORATION, priority 2023, published 2026).

Columns and labels:
[1] = biological target: T1, hRIPK1 (aa 1-375) fusion protein (Homo sapiens, UniProt Q13546); assay: ADP-Glo kinase assay: catalytic activity of RIPK1 (autophosphorylation, conversion of ATP to ADP); format: biochemical
T1 construct: hRIPK1 (aa 1-375) fusion protein
T1 sequence (Q13546 1-375): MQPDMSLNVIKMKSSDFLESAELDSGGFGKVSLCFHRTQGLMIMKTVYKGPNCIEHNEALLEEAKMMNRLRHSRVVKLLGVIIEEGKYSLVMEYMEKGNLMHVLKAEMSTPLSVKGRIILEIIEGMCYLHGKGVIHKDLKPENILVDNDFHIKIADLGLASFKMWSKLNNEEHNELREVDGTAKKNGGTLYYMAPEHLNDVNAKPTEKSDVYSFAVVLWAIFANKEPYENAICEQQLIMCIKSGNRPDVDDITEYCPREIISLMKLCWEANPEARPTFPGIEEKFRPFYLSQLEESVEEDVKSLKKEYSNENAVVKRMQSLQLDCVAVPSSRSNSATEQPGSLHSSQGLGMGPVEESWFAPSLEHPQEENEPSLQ
Procedure: The catalytic activity of RIPK1 was measured by monitoring the conversion of Adenosine triphosphate (ATP) to Adenosine diphosphate (ADP) due to autophosphorylation using an ADP-Glo kinase kit (Promega, catalog no. V9104).
In detail, 2 μl recombinantly produced hRIPK1 (aa 1-375) fusion protein (end concentration 3.6 μg/ml) and 2 μl compound (end concentration 33300-1.69 nM; DMSO end concentration 1%) were incubated for 30 minutes at room temperature and then 2 μl ATP (ADP Glo kit, end concentration 50 μM) were added. After another 240 minutes incubation at room temperature, 5 μl Promega ADP-Glo reagent I was added to quench the reaction and deplete unconsumed ATP. After an incubation period of 30 minutes, 10 μl Promega ADP-Glo detection reagent II was added resulting in conversion of ADP to ATP, which generates a light-reaction between luciferase and luciferin. Luminescence was quantified after 30 minutes with a Pherastar FS (BMG LABTECH, Ortenberg).
The adjustment was obtained by nonlinear regression using the Levenberg Marquardt algorithm.

U937 cells = assay: Cellular assay in U937 cells: activity of RIPK1 inhibitors on TNFα/zVAD.fmk-induced cell death (necroptosis), CellTiter 96 AQueous (MTS) readout; format: cell-based; conditions: Homo sapiens, U-937
Source text: Upon TNF-Receptor I ligation, Ser/Thr kinase RIPK1 is recruited to a transient receptor complex 1. Upon modification of RIPK1 which promotes activation of RIPK1, complex IIb can form, that involves recruitment of RIPK3 and MLKL (mixed lineage-kinase domain-like protein) which then translocates from the cytosol to the plasma membrane to execute cell death (Cai, Z. et al, Nat. Cell Biol. (2014) 16:55-65).
Cell death was quantified in 96 well plates by determination of the amount of live cell using a CellTiter 96 AQueous reagent (Promega), a calorimetric method to measure the number of live cells by reducing tetrazolium compound [3-(4,5-dimethylthiazol-2-yl)-5-(3-carboxymethoxyphenyl)-2-(4-sulfophenyl)-2H-tetrazolium, inner salt; MTS] into formazan. Absorbance of formazan was read at 490 nm. The inhibitory activity of the test compound was quantified in a concentration response curve (CRC) experiment.
Compounds were obtained as 10 mM stock solutions and were diluted 1 to 10 volumes with DMSO to yield a 1 mM solution. From this solution 2 μl were diluted with 998 μl growth medium. 100 μl of 2 μM compound solution was further diluted sequentially with a dilution factor of 2.5 by adding 150 μl growth medium. A total of 10 concentrations were tested ranging from 10 μM to 0.26 nM or from 1 μM to 0.07 nM.
U937 cells were cultured in RPMI1640 Glutamax and 10% heat inactivated FBS. 50 μl cell suspension containing 1×10^6 cells/ml supplemented with 50 μM zVAD.fmk (Benzyloxycarbonyl-Val-Ala-Asp (OMe) fluoromethylketone) and 100 ng/ml recombinant human TNF[…] were dispensed in each well of a 96-well plate. 50 μl of compound dilutions (described in Cellular assay in U937 cells) were added and the cell suspension incubated overnight (18 to 24 hrs) at 37° C., 5% CO2 in a humidified atmosphere (95% rH). High (no compound) and low control (no TNF[…], zVAD.fmk) were tested with 7 replicates; all compound concentrations were tested in duplicates on each experimental plate.
CellTiter 96 Aqueous reagent was mixed (100 μl PMS (phenazine methosulfate) solution/2 ml MTS (3-(4,5-[…])-5-(3-carboxymethoxyphenyl)-2-(4-sulfophenyl)-2H-tetrazolium, inner salt) solution) and 20 μl were added per well. After 4 hrs incubation at 37° C. (5% CO2 95% rH) optical density was measured at 490 nm on a microplate reader (Tecan Infinite M1000).
The % inhibition is expressed as percentage of the maximal inhibition value obtained in the absence of TNFα/zVAD.fmc.

IC50 [1]	SMILES	IC50 (U937 cells)
19 nM	N#Cc1cc(F)cc([C@@H]2CCON2C(=O)[C@H]2CC[C@H](Cn3ncc4ccc(C#N)cc43)CC2)c1 [compound 28, trans-1-((4-((S)-3-(3-cyano-5-fluorophenyl)isoxazolidine-2-carbonyl)cyclohexyl)methyl)-1H-indazole-6-carbonitrile]	3 nM
12 nM	N#Cc1ccc2cnn(C[C@H]3CC[C@H](C(=O)N4OCC[C@H]4c4cc(F)cc(F)c4)CC3)c2c1 [compound 29, trans-1-((4-((S)-3-(3,5-difluorophenyl)isoxazolidine-2-carbonyl)cyclohexyl)methyl)-1H-indazole-6-carbonitrile]	1 nM
39 nM	N#Cc1cc(F)cc([C@@H]2CCON2C(=O)[C@H]2CC[C@H](Cn3cc4ccc(C#N)cc4n3)CC2)c1 [compound 30, trans-2-((4-((S)-3-(3-cyano-5-fluorophenyl)isoxazolidine-2-carbonyl)cyclohexyl)methyl)-2H-indazole-6-carbonitrile]	68 nM
24 nM	N#Cc1ccc2cn(C[C@H]3CC[C@H](C(=O)N4OCC[C@H]4c4cc(F)cc(F)c4)CC3)nc2c1 [compound 31, trans-2-((4-((S)-3-(3,5-difluorophenyl)isoxazolidine-2-carbonyl)cyclohexyl)methyl)-2H-indazole-6-carbonitrile]	19 nM
19 nM	N#Cc1cc(F)cc([C@@H]2CCON2C(=O)[C@H]2CC[C@H](Cn3ncc4c(F)cc(C#N)cc43)CC2)c1 [compound 32, trans-1-((4-((S)-3-(3-cyano-5-fluorophenyl)isoxazolidine-2-carbonyl)cyclohexyl)methyl)-4-fluoro-1H-indazole-6-carbonitrile]	3 nM
19 nM	N#Cc1cc(F)c2cnn(C[C@H]3CC[C@H](C(=O)N4OCC[C@H]4c4cc(F)cc(F)c4)CC3)c2c1 [compound 33, trans-1-((4-((S)-3-(3,5-difluorophenyl)isoxazolidine-2-carbonyl)cyclohexyl)methyl)-4-fluoro-1H-indazole-6-carbonitrile]	2 nM
37 nM	N#Cc1cc(F)cc([C@@H]2CCON2C(=O)[C@H]2CC[C@H](Cn3cc4c(F)cc(C#N)cc4n3)CC2)c1 [compound 34, trans-2-((4-((S)-3-(3-cyano-5-fluorophenyl)isoxazolidine-2-carbonyl)cyclohexyl)methyl)-4-fluoro-2H-indazole-6-carbonitrile]	69 nM
41 nM	N#Cc1cc(F)c2cn(C[C@H]3CC[C@H](C(=O)N4OCC[C@H]4c4cc(F)cc(F)c4)CC3)nc2c1 [compound 35, trans-2-((4-((S)-3-(3,5-difluorophenyl)isoxazolidine-2-carbonyl)cyclohexyl)methyl)-4-fluoro-2H-indazole-6-carbonitrile]	48 nM
23 nM	N#Cc1cc(F)cc([C@@H]2CCON2C(=O)[C@H]2CC[C@H](Cn3cnc4c(F)cc(C#N)cc43)CC2)c1 [compound 36, trans-1-((4-((S)-3-(3-cyano-5-fluorophenyl)isoxazolidine-2-carbonyl)cyclohexyl)methyl)-4-fluoro-1H-benzo[d]imidazole-6-carbonitrile]	20 nM
17 nM	N#Cc1cc(F)c2ncn(C[C@H]3CC[C@H](C(=O)N4OCC[C@H]4c4cc(F)cc(F)c4)CC3)c2c1 [compound 37, trans-1-((4-((S)-3-(3,5-difluorophenyl)isoxazolidine-2-carbonyl)cyclohexyl)methyl)-4-fluoro-1H-benzo[d]imidazole-6-carbonitrile]	5 nM
32 nM	Cc1cc([C@@H]2CCON2C(=O)[C@H]2CC[C@H](Cn3cnc4c(F)cc(C#N)cc43)CC2)co1 [compound 38, trans-4-fluoro-1-((4-((S)-3-(5-methylfuran-3-yl)isoxazolidine-2-carbonyl)cyclohexyl)methyl)-1H-benzo[d]imidazole-6-carbonitrile]	30 nM
28 nM	Cc1cc([C@@H]2CCON2C(=O)[C@H]2CC[C@H](Cn3cnc4cc(F)c(C#N)cc43)CC2)co1 [compound 39, trans-5-fluoro-1-((4-((S)-3-(5-methylfuran-3-yl)isoxazolidine-2-carbonyl)cyclohexyl)methyl)-1H-benzo[d]imidazole-6-carbonitrile]	15 nM
41 nM	Cc1cc([C@@H]2CCON2C(=O)[C@H]2CC[C@H](Cn3cnc4cc(C#N)c(F)cc43)CC2)co1 [compound 40, trans-6-fluoro-1-((4-((S)-3-(5-methylfuran-3-yl)isoxazolidine-2-carbonyl)cyclohexyl)methyl)-1H-benzo[d]imidazole-5-carbonitrile]	59 nM
30 nM	Cc1cc([C@@H]2CCON2C(=O)[C@H]2CC[C@H](Cn3cc4ccc(C#N)cc4n3)CC2)co1 [compound 41, trans-2-((4-((S)-3-(5-methylfuran-3-yl)isoxazolidine-2-carbonyl)cyclohexyl)methyl)-2H-indazole-6-carbonitrile]	91 nM
39 nM	Cc1cc([C@@H]2CCON2C(=O)[C@H]2CC[C@H](Cn3cc4c(F)cc(C#N)cc4n3)CC2)co1 [compound 42, trans-4-fluoro-2-((4-((S)-3-(5-methylfuran-3-yl)isoxazolidine-2-carbonyl)cyclohexyl)methyl)-2H-indazole-6-carbonitrile]	119 nM
18 nM	Cc1cc([C@@H]2CCON2C(=O)[C@H]2CC[C@H](Cn3ncc4ccc(C#N)cc43)CC2)co1 [compound 43, trans-1-((4-((S)-3-(5-methylfuran-3-yl)isoxazolidine-2-carbonyl)cyclohexyl)methyl)-1H-indazole-6-carbonitrile]	1 nM
17 nM	Cc1cc([C@@H]2CCON2C(=O)[C@H]2CC[C@H](Cn3ncc4c(F)cc(C#N)cc43)CC2)co1 [compound 44, trans-4-fluoro-1-((4-((S)-3-(5-methylfuran-3-yl)isoxazolidine-2-carbonyl)cyclohexyl)methyl)-1H-indazole-6-carbonitrile]	2 nM
18 nM	N#Cc1cc(F)c2ccn(C[C@H]3CC[C@H](C(=O)N4OCC[C@H]4c4cc(F)cc(F)c4)CC3)c2c1 [compound 45, trans-1-((4-((S)-3-(3,5-difluorophenyl)isoxazolidine-2-carbonyl)cyclohexyl)methyl)-4-fluoro-1H-indole-6-carbonitrile]	6 nM
13 nM	N#Cc1cc(F)cc([C@@H]2CCON2C(=O)[C@H]2CC[C@H](Cn3ccc4c(F)cc(C#N)cc43)CC2)c1 [compound 46, trans-1-((4-((S)-3-(3-cyano-5-fluorophenyl)isoxazolidine-2-carbonyl)cyclohexyl)methyl)-4-fluoro-1H-indole-6-carbonitrile]	6 nM
18 nM	Cc1cc([C@@H]2CCON2C(=O)[C@H]2CC[C@H](Cn3ccc4c(F)cc(C#N)cc43)CC2)co1 [compound 47, trans-4-fluoro-1-((4-((S)-3-(5-methylfuran-3-yl)isoxazolidine-2-carbonyl)cyclohexyl)methyl)-1H-indole-6-carbonitrile]	3 nM
